Test results from US10197557B2, “Small molecules for endothelial cell activation” (The Regents of the University of California, priority 2011, dated 2019).

Tested on: Primary human umbilical endothelial cells (EC)
Assay: Biological platform: EC-monocyte co-culture, flow cytometry profiling (CD40, CD209, CD163) across 10 parameters
Type: cell-based
Details: Prestwick library of FDA approved compounds (FIG. 1B)
Method: The biological platform or assay described herein can be embodied in different ways (see, e.g., FIGS. 1 and 9). An embodiment of the biological platform of invention is provided below: • 1. Primary human umbilical endothelial cells (EC) are adhered in 96 or 384-well plates at confluency for 2 hours. • 2. Control stimuli (or compounds of interest) are added to EC for 5 hours. • 3. Compounds are removed, EC washed, and primary human peripheral blood monocytes are added. • 4. After 24 hours, 25 μl of supernatant is removed for MIP1α and MIP1β analysis. • 5. After 42-48 total hours of co-culture, cells are harvested for flow cytometry. • 6. Cells are labeled with: CD40, CD209, and CD163. • a. Parameter 1: Gate on EC/monocytes by using FSC vs SSC on whole co-culture population • b. Parameter 2: Use SSC vs. CD40 to separate monocytes from EC. Note: loss of EC population reflects compound toxicity. • c. Parameter 3: Gate on CD40+ monocytes • d. Parameter 4: Determine CD40 MFI on CD40+ macrophages • e. Parameter 5: Determine CD209 MFI on CD40+ macrophages • f. Parameter 6: Determine CD163 MFI on CD40+ macrophages • g. Parameter 7: Subtract vehicle control MFIs from each sample of interest. In the example below (FIGS. 2A and 2B), EC stimulation with IFNγ may promote EC-triggered MΦ with CD40 MFI=40, CD209 MFI=60, CD163=10. DMSO treated EC promote MΦ with CD40=20, CD209 MFI=30, and CD163=100. […]

CN(C)C(=N)N=C(N)N [metformin]
position in the profile of pro-inflammatory (enhanced) and anti-inflammatory (dampening) compounds: dampening subset
